Test results reported in US20130217664A1, “NOVEL COMPOUNDS USEFUL FOR THE TREATMENT OF DEGENERATIVE AND INFLAMMATORY DISEASES” (priority 2012, published 2013).

Columns and labels:
human JAK2 = target: T1, human JAK2 (Homo sapiens, UniProt O60674); experiment: JAK2 inhibition assay (polyGT substrate / Ulight-JAK1 peptide); type: biochemical; details: recombinant human JAK2 catalytic domain; polyGT or Ulight-JAK1 peptide assay
T1 construct: catalytic domain (amino acids 808-1132; catalog number PV4210); GST; purchased Invitrogen PV4210
T1 sequence (O60674 808-1132): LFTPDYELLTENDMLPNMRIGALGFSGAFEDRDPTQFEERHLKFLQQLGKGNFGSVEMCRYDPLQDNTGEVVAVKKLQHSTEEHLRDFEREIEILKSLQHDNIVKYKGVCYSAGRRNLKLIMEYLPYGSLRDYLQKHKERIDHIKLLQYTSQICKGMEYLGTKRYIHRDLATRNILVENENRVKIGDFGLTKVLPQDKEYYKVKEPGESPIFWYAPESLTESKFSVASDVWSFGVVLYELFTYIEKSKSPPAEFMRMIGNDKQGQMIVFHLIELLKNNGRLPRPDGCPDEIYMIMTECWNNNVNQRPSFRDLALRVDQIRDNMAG
Method in brief: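 Radiometric: 0.025 mU JAK2 with 2.5 μg polyGT, 1 μM ATP plus ^33P-ATP in MOPS pH 7.5 buffer, 1% DMSO, 90 min at 30° C.; filter counting. Alternative TR-FRET format with Ulight-JAK1 peptide, 60 min at room temperature, Eu-anti-phosphotyrosine detection.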

CTLL-2 cell line = experiment: CTLL2 viability assay; type: cell-based; details: Mus musculus, IL-2 dependent CTLL2 viability, 24 h, ATP-lite
From the text: The protocol describes the methods to analyse the activity of compounds on their ability to sustain the IL2-dependent viability of CTLL2.
Final DMSO concentration was 0.1%.

human TYK2 = target: T2, human TYK2 (Homo sapiens, UniProt P29597); experiment: TYK2 inhibition assay; type: biochemical; details: recombinant human TYK2 catalytic domain, polyGT substrate
T2 construct: catalytic domain (amino acids 871-1187; catalog number 08-147); purchased Carna Biosciences 08-147
T2 sequence (P29597 871-1187): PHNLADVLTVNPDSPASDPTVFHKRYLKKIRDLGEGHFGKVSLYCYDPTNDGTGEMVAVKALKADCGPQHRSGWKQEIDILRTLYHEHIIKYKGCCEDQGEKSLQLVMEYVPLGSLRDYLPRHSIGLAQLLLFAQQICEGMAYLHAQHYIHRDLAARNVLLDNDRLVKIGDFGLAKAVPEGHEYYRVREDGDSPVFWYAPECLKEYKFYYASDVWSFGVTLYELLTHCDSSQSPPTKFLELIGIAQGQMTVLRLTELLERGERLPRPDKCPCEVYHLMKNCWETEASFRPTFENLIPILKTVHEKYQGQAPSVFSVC
Method in brief: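 Radiometric kinase reaction run 90 min at 30 °C, stopped with phosphoric acid, washed and scintillation-counted.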

BA/F3 cell line = experiment: BA/F3 viability assay; details: Mus musculus, BaF3, 48 h, read-out: BA/F3 IC50

Row | Structure (SMILES) | IC50 (human JAK2) | IC50 (CTLL-2 cell line) | IC50 (human TYK2) | IC50 (BA/F3 cell line)
1 | CCc1cc(CO)ccc1N(C)c1cc2c(cn1)ncn2C [Compound 81, (3-Ethyl-4-(methyl(1-methyl-1H-imidazo[4,5-c]pyridin-6-yl)amino)phenyl)MeOH] | 101 to 500 nM | > 1000 nM | 0.01 to 100 nM | > 5000 nM
2 | CCc1cc(-c2cnn(C)c2)ccc1N(C)c1cc2c(cn1)ncn2C [Compound 93, N-(2-Ethyl-4-(1-methyl-1H-pyrazol-4-yl)phenyl)-N,1-dimethyl-1H-imidazo[4,5-d]pyridin-6-amine] | 0.01 to 100 nM | > 1000 nM | 0.01 to 100 nM | > 5000 nM
3 | CCc1cc(-c2cncnc2)ccc1N(C)c1cc2c(cn1)ncn2C [Compound 95, N-(2-ethyl-4-(pyrimidin-5-yl)phenyl)-N,1-dimethyl-1H-imidazo[4,5-c]pyridin-6-amine] | 101 to 500 nM | > 1000 nM | 0.01 to 100 nM | > 5000 nM
4 | CCc1cc(C(C)O)ccc1N(C)c1cc2c(cn1)ncn2C (stereo not shown) [Compound 101, 1-(3-Ethyl-4-(methyl(1-methyl-1H-imidazo[4,5-c]pyridin-6-yl)amino)phenyl)ethanol] | 0.01 to 100 nM | > 1000 nM | 0.01 to 100 nM | > 5000 nM
5 | CCc1cc(O)ccc1N(C)c1cc2c(cn1)ncn2C [Compound 107, 3-ethyl-4-(methyl(1-methyl-1H-imidazo[4,5-c]pyridin-6-yl)amino)phenol] | 0.01 to 100 nM |  | 0.01 to 100 nM | 
6 | CCc1cc(OC2CCN(S(C)(=O)=O)C2)ccc1N(C)c1cc2c(cn1)ncn2C (stereo not shown) [Compound 110, N-(2-Ethyl-4-((1-(methylsulfonyl)pyrrolidin-3-yl)oxy)phenyl)-N,1-dimethyl-1H-imidazo[4,5-c]pyridin-6-amine] | 101 to 500 nM |  | 0.01 to 100 nM | 
7 | CCc1cc(Cn2ccnc2)ccc1N(C)c1cc2c(cn1)ncn2C [Compound 111, N-(4-((1H-imidazol-1-yl)methyl)-2-ethylphenyl)-N,1-dimethyl-1H-imidazo[4,5-c]pyridin-6-amine] | 101 to 500 nM |  | 101 to 500 nM | 
8 | CCc1cc(-c2ccc(C#N)nc2)ccc1N(C)c1cc2c(cn1)ncn2C [Compound 114, 5-(3-ethyl-4-(methyl(1-methyl-1H-imidazo[4,5-c]pyridin-6-yl)amino)phenyl)picolino-nitrile] | 101 to 500 nM |  | 0.01 to 100 nM | 
9 | CCc1cc(-c2cnc(NC(C)=O)nc2)ccc1N(C)c1cc2c(cn1)ncn2C [Compound 115, N-(5-(3-Ethyl-4-(methyl(1-methyl-1H-imidazo[4,5-c]pyridin-6-yl)amino)phenyl)pyrimidin-2-yl)acetamide] | 101 to 500 nM | > 1000 nM | 0.01 to 100 nM | > 5000 nM
10 | CCc1cc(C(=O)NCCN(C)C)ccc1N(C)c1cc2c(cn1)ncn2C [Compound 119, N-(2-(dimethylamino)ethyl)-3-ethyl-4-(methyl(1-methyl-1H-imidazo[4,5-c]pyridin-6-yl)amino)benzamide] | > 1000 nM |  | > 1000 nM | 
11 | CCc1cc(C(=O)NCC#N)ccc1N(C)c1cc2c(cn1)ncn2C [Compound 120, N-(cyanomethyl)-3-ethyl-4-(methyl(1-methyl-1H-imidazo[4,5-c]pyridin-6-yl)amino)benzamide] | 101 to 500 nM |  | 101 to 500 nM | 
12 | CCc1ccc(C(=O)NC(C)(C)C)cc1N(C)c1cc2c(cn1)ncn2C [Compound 123, N-tert-butyl-4-ethyl-3-(methyl(1-methyl-1H-imidazo[4,5-c]pyridin-6-yl)amino)benzamide] | > 1000 nM |  | > 1000 nM | 
13 | CCc1cc(-c2ccsc2)ccc1N(C)c1cc2c(cn1)ncn2C [Compound 127, N-(2-ethyl-4-(thiophen-3-yl)phenyl)-N,1-dimethyl-1H-imidazo[4,5-c]pyridin-6-amine] | 101 to 500 nM |  | 0.01 to 100 nM | 
14 | CCc1cc(-c2ccc(CNC(=O)OC(C)(C)C)s2)ncc1N(C)c1cc2c(cn1)ncn2C [Compound 302] | 101 to 500 nM |  | 101 to 500 nM | 
15 | CCc1cc(-c2ccc(CN)s2)ncc1N(C)c1cc2c(cn1)ncn2C [Compound 303, [6-(5-Aminomethyl-thiophen-2-yl)-4-ethyl-pyridin-3-yl]-methyl-(1-methyl-1H-imidazo[4,5-c]pyridin-6-yl)-amine] | > 1000 nM |  | > 1000 nM | 
16 | CCc1cc(-c2ccc(Cl)s2)ncc1N(C)c1cc2c(cn1)ncn2C [Compound 304, [6-(5-Chloro-thiophen-2-yl)-4-ethyl-pyridin-3-yl]-methyl-(1-methyl-1H-imidazo[4,5-c]pyridin-6-yl)-amine] | 0.01 to 100 nM |  | 0.01 to 100 nM | 

Row | Structure (SMILES) | IC50 (human JAK2) | IC50 (CTLL-2 cell line) | IC50 (human TYK2) | IC50 (BA/F3 cell line)
17 | CCc1cc(-c2ccc(C)s2)ncc1N(C)c1cc2c(cn1)ncn2C [Compound 311, [4-Ethyl-6-(5-methyl-thiophen-2-yl)-pyridin-3-yl]-methyl-(1-methyl-1H-imidazo[4,5-c]pyridin-6-yl)-amine] | 0.01 to 100 nM |  | 0.01 to 100 nM | 
18 | COc1cc(-c2c(C)nn(C)c2C)ncc1N(C)c1cc2c(cn1)ncn2C [Compound 312] | > 1000 nM |  | > 1000 nM | 
19 | COc1cc(N2CCOCC2)ncc1N(C)c1cc2c(cn1)ncn2C [Compound 313, (4-Methoxy-6-morpholin-4-yl-pyridin-3-yl)-methyl-(1-methyl-1H-imidazo[4,5-c]pyridine-6-yl)-amine] | 101 to 500 nM |  | 101 to 500 nM | 
20 | COc1ccc(S(=O)(=O)N2CCCCC2)cc1N(C)c1cc2c(cn1)ncn2C [Compound 314, [2-Methoxy-5-(piperidine-1-sulfonyl)-phenyl]-methyl-(1-methyl-1H-imidazo[4,5-d]pyridin-6-yl)-amine] | > 1000 nM |  | > 1000 nM | 
21 | COc1cc(S(=O)(=O)N2CCOCC2)ccc1N(C)c1cc2c(cn1)ncn2C [Compound 315, [2-Methoxy-4-(morpholine-4-sulfonyl)-phenyl]-methyl-(1-methyl-1H-imidazo[4,5-d]pyridin-6-yl)-amine] | > 1000 nM |  | > 1000 nM | 
22 | CCc1cn(CCC#N)nc1N(C)c1cc2c(cn1)ncn2C [Compound 316, 3-{4-Ethyl-3-[methyl-(1-methyl-1H-imidazo[4,5-c]pyridin-6-yl)-amino]-pyrazol-1-yl}-propionitrile] | > 1000 nM |  | > 1000 nM | 
23 | CN(c1cc2c(cn1)ncn2C)c1ccc(CNC(=O)C(F)F)cc1F [Compound 320] | 0.01 to 100 nM |  | 101 to 500 nM | 
24 | CCc1cc(C#N)cc(F)c1N(C)c1cc2c(cn1)ncn2C [Compound 322, 3-Ethyl-5-fluoro-4-[methyl-(1-methyl-M-imidazo[4,5-c]pyridin-6-yl)-amino]-benzonitrile] | 101 to 500 nM |  | 101 to 500 nM | 
25 | CCc1cc(CNS(=O)(=O)C(F)F)cc(F)c1N(C)c1cc2c(cn1)ncn2C [Compound 324, N-{3-Ethyl-5-fluoro-4-[methyl-(1-methyl-1H-imidazo[4,5-c]pyridin-6-yl)-amino]-benzyl}-C,C-difluoro-methanesulfonamide] | 0.01 to 100 nM |  | 0.01 to 100 nM | 
26 | CCc1cc(CNC(=O)C(F)F)c(F)cc1N(C)c1cc2c(cn1)ncn2C [Compound 326, N-{5-Ethyl-2-fluoro-4-[methyl-(1-methyl-M-imidazo[4,5-c]pyridin-6-yl)-amino]-benzyl}-2,2-difluoro-acetamide] | 0.01 to 100 nM |  | 101 to 500 nM | 
27 | CCc1cc(C2CN(S(=O)(=O)C(C)C)C2)ncc1N(C)c1cc2c(cn1)ncn2C [Compound 330, {4-Ethyl-6-[1-(propane-2-sulfonyl)-azetidin-3-yl]-pyridin-3-yl}-methyl-(1-methyl-1H-imidazo[4,5-c]pyridin-6-yl)-amine] | 101 to 500 nM |  | > 1000 nM | 
28 | CCc1cc(C2CN(CC#N)C2)ncc1N(C)c1cc2c(cn1)ncn2C [Compound 331, (3-{4-Ethyl-5-[methyl-(1-methyl-1H-imidazo[4,5-c]pyridin-6-yl)-amino]-pyridin-2-yl}-azetidin-1-yl)-acetonitrile] | 101 to 500 nM |  | 501 to 1000 nM | 
29 | CCc1cc(C2CN(C(C)=O)C2)ncc1N(C)c1cc2c(cn1)ncn2C [Compound 332, 1-(3-{4-Ethyl-5-[methyl-(1-methyl-1H-imidazo[4,5-c]pyridin-6-yl)-amino]-pyridin-2-yl}-azetidin-1-yl)-ethanone] | 501 to 1000 nM |  | > 1000 nM | 
30 | CCc1cc(CNS(=O)(=O)C(F)F)ncc1N(C)c1cc2c(cn1)ncn2C [Compound 343, N-{4-Ethyl-5-[methyl-(1-methyl-1H-imidazo[4,5-c]pyridin-6-yl)-amino]-pyridin-2-ylmethyl}-C,C-difluoro-methane sulfonamide] | 101 to 500 nM | > 1000 nM | 501 to 1000 nM | 
31 | CCc1ccccc1N(CC(F)F)c1cc2c(cn1)ncn2C [Compound 463, N-(2,2-difluoroethyl)-N-(2-ethylphenyl)-1-methyl-1H-imidazo[4,5-c]pyridin-6-amine] | 101 to 500 nM |  | 0.01 to 100 nM | 
